What is called logP is a log measure of how a compound divides between an organic and an aqueous phase.

A short description of the data set: method code SF, from DOI: 10.1080/00021369.1987.10868331.

Structures are written as SMILES.

Consider `CCNc1nc(NC(C)C)nc(SC(F)F)n1`, for which the logP was 3.7.
The figure for `CC(C)Nc1nc(NC(C)C)nc(SC(F)F)n1` is 4.25.
The same measure for `CCCCNc1nc(NC(C)C)nc(SC(F)F)n1`: 4.75; for `CNc1nc(NC)nc(SC(F)F)n1`: 2.31; for `CC(C)Nc1nc(NC(C)(C)C)nc(SC(F)F)n1`: 4.7.
The figure for `CCNc1nc(NC(C)(C)C)nc(SC(F)F)n1` is 4.57; for `CCNc1nc(NCC)nc(SC(F)F)n1` it is 3.28; for `CCCNc1nc(NC)nc(SC(F)F)n1` it is 3.28.
In turn, `CCCCNc1nc(NC)nc(SC(F)F)n1` came in with a logP of 3.7.
The figure for `CCC(C)Nc1nc(NC(C)C)nc(SC(F)F)n1` (stereo unspecified) is 4.55; for `CCCCCCNc1nc(NCC)nc(SC(F)F)n1` it is 5.53.
`CCCCCNc1nc(NCC)nc(SC(F)F)n1` registered a logP of 4.71.
`CCCNc1nc(NCCC)nc(SC(F)F)n1` gave a logP of 4.45.
The same measure for `CCNc1nc(N)nc(SC(F)F)n1`: 2.29.
Molecule `CCCNc1nc(NC(C)C)nc(SC(F)F)n1` came in with a logP of 4.23.
The same measure for `CNc1nc(NC(C)(C)C)nc(SC(F)F)n1`: 3.91; for `CNc1nc(NC(C)C)nc(SC(F)F)n1`: 3.27.
The same measure for `CCCCCNc1nc(NC)nc(SC(F)F)n1`: 4.42; for `CCCNc1nc(NCC)nc(SC(F)F)n1`: 3.8; for `CNc1nc(N)nc(SC(F)F)n1`: 1.75.
The figure for `CCNc1nc(NC)nc(SC(F)F)n1` is 2.68.
The molecule `CCC(C)Nc1nc(NC)nc(SC(F)F)n1` (stereo unspecified) yielded a logP of 3.69.
For the molecule `CCCCNc1nc(NCC)nc(SC(F)F)n1`, the logP came out at 4.51.
The figure for `CCNc1nc(NC(C)CC)nc(SC(F)F)n1` (stereo unspecified) is 4.23; for `CCCCCCCCNc1nc(NCC)nc(SC(F)F)n1` it is 6.61; for `Nc1nc(N)nc(SC(F)F)n1` it is 1.21.

The values are drawn from the SangsterLogP compilation.
